Results published in US20170320870A1 (Medical Research Council Technology, priority 2009, published 2017).

Assays:
Format in all cases: biochemical
[1] = target: each specific kinase (kinase selectivity panel, Table 2) (Homo sapiens, UniProt Q8N4C8); experiment: Kinase selectivity: percentage inhibition of each specific kinase at 1 μM inhibitor concentration; conditions: MINK1
Protocol: (§1) Values are expressed as percentage inhibition of the each specific kinase at 1 μM inhibitor concentration.

[2] = target: each specific kinase (kinase selectivity panel, Table 2) (Homo sapiens, UniProt O43318); experiment: as above; conditions: TAK1
Chain of each specific kinase (kinase selectivity panel, Table 2) (Homo sapiens, UniProt O43318) (O43318 whole entry): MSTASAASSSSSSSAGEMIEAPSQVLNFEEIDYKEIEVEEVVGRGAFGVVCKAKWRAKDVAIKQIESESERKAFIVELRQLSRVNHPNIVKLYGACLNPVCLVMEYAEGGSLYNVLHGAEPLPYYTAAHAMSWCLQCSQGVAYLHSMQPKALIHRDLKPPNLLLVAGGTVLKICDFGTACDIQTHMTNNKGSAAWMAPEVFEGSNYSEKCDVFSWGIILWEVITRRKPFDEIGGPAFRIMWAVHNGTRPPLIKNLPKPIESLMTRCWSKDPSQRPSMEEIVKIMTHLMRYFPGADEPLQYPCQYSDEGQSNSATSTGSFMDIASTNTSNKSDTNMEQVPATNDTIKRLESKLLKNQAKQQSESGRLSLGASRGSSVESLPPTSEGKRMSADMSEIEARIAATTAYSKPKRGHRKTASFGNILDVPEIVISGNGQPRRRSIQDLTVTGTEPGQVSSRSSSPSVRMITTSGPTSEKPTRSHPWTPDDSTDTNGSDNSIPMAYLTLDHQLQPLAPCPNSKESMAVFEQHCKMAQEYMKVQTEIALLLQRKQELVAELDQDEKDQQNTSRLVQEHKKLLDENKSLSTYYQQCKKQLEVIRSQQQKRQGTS
Protocol: as §1

[3] = target: each specific kinase (kinase selectivity panel, Table 2) (Homo sapiens, UniProt P43405); experiment: as above; conditions: SYK
Protocol: as §1

[4] = target: each specific kinase (kinase selectivity panel, Table 2) (Homo sapiens, UniProt P04629); experiment: as above; conditions: TrkA
Protocol: as §1

[5] = target: each specific kinase (kinase selectivity panel, Table 2) (Homo sapiens, UniProt O43353); experiment: as above; conditions: RIPK2
Protocol: as §1

[6] = target: each specific kinase (kinase selectivity panel, Table 2) (Homo sapiens, UniProt Q9NWZ3); experiment: as above; conditions: IRAK4
Protocol: as §1

[7] = target: each specific kinase (kinase selectivity panel, Table 2) (Homo sapiens, UniProt Q15303); experiment: as above; conditions: HER4
Protocol: as §1

[8] = target: each specific kinase (kinase selectivity panel, Table 2) (Homo sapiens, UniProt O96013); experiment: as above; conditions: PAK4
Protocol: as §1

[9] = target: each specific kinase (kinase selectivity panel, Table 2) (Homo sapiens, UniProt Q9H2X6); experiment: as above; conditions: HIPK2
Protocol: as §1

[10] = target: each specific kinase (kinase selectivity panel, Table 2) (Homo sapiens, UniProt P12931); experiment: as above; conditions: Src
Protocol: as §1

[11] = target: each specific kinase (kinase selectivity panel, Table 2) (Rattus norvegicus, UniProt Q62868); experiment: as above; conditions: ROCK 2
Chain of each specific kinase (kinase selectivity panel, Table 2) (Rattus norvegicus, UniProt Q62868) (Q62868 whole entry): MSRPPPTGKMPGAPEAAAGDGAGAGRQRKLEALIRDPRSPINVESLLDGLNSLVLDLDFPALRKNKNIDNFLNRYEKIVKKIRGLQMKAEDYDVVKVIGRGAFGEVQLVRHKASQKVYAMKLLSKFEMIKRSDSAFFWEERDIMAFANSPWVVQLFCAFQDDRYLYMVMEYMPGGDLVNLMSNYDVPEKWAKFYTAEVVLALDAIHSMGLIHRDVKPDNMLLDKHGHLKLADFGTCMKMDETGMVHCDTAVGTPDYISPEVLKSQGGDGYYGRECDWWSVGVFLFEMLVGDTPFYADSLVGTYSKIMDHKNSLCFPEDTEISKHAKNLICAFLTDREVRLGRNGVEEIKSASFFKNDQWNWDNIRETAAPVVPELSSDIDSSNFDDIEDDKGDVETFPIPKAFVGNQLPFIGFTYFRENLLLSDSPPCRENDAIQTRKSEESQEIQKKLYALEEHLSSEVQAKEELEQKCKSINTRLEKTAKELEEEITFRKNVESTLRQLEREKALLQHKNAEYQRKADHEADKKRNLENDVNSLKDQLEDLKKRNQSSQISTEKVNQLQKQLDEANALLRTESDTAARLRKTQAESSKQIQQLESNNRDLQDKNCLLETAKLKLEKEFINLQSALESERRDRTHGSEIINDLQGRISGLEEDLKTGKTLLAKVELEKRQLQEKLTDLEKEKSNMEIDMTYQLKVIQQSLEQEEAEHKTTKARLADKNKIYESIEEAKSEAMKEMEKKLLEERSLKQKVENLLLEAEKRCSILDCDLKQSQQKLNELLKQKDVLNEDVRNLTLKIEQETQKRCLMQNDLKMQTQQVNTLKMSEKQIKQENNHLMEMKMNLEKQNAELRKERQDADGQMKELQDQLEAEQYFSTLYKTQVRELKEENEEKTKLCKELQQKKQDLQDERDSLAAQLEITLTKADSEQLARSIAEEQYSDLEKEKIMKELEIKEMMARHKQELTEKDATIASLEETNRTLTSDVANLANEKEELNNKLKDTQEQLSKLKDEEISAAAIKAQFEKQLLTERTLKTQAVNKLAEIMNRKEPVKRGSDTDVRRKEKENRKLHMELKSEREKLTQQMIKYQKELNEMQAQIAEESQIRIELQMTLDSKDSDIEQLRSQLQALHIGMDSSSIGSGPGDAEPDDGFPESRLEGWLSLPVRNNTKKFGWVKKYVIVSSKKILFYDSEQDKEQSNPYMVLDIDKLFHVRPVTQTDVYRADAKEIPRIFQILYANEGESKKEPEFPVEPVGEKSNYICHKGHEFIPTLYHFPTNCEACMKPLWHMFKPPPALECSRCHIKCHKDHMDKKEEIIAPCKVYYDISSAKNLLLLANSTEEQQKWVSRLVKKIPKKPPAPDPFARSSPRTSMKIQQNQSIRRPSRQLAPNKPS
Protocol: as §1

[12] = target: each specific kinase (kinase selectivity panel, Table 2) (Homo sapiens, UniProt Q14680); experiment: as above; conditions: MELK
Chain of each specific kinase (kinase selectivity panel, Table 2) (Homo sapiens, UniProt Q14680) (Q14680 whole entry): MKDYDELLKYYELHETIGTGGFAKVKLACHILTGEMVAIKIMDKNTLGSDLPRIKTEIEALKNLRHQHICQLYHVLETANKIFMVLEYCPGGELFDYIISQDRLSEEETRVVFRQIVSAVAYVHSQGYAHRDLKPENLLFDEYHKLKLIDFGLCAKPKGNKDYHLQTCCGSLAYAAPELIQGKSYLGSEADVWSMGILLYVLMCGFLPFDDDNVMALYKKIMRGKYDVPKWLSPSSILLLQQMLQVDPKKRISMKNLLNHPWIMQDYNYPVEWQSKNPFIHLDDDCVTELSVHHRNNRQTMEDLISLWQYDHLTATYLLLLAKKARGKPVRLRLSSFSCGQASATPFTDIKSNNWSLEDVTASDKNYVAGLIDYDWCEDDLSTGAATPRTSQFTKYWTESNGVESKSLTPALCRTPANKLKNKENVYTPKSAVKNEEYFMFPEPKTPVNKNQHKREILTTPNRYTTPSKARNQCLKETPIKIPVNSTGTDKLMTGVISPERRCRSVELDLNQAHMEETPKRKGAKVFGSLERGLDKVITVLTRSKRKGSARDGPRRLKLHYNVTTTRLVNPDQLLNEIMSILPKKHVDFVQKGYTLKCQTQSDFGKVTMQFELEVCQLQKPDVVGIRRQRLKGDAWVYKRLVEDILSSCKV
Protocol: as §1

[13] = target: each specific kinase (kinase selectivity panel, Table 2) (Homo sapiens, UniProt Q9UHD2); experiment: as above; conditions: TBK1
Chain of each specific kinase (kinase selectivity panel, Table 2) (Homo sapiens, UniProt Q9UHD2) (Q9UHD2 whole entry): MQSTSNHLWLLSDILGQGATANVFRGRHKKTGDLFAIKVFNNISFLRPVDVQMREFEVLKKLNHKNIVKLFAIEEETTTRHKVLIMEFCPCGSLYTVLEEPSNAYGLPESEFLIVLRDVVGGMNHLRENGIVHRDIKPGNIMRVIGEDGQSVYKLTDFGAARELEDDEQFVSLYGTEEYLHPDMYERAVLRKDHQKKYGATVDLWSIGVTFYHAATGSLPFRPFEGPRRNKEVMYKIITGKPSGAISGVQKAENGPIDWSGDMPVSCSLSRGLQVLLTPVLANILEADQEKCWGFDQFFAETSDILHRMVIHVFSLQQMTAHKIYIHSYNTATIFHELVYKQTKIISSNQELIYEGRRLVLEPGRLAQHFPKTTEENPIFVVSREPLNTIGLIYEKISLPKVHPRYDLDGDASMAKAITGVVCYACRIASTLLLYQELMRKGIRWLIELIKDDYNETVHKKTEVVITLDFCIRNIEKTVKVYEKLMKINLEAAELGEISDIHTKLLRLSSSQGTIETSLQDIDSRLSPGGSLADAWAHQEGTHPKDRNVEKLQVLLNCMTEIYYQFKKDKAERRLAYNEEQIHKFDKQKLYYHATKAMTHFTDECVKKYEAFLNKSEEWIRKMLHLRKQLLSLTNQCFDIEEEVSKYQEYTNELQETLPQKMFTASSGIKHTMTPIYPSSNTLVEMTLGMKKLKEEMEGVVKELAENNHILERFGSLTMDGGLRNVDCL
Protocol: as §1

[14] = target: each specific kinase (kinase selectivity panel, Table 2) (Homo sapiens, UniProt Q14012); experiment: as above; conditions: CAMK1
Protocol: as §1

[15] = target: each specific kinase (kinase selectivity panel, Table 2) (Homo sapiens, UniProt P45984); experiment: as above; conditions: JNK2
Protocol: as §1

[16] = target: each specific kinase (kinase selectivity panel, Table 2) (Homo sapiens, UniProt O15530); experiment: as above; conditions: PDK1
Protocol: as §1

[17] = target: each specific kinase (kinase selectivity panel, Table 2) (Homo sapiens, UniProt Q14164); experiment: as above; conditions: IKKe
Protocol: as §1

[18] = target: each specific kinase (kinase selectivity panel, Table 2) (Homo sapiens, UniProt P24941); experiment: as above; conditions: CDK2-Cyclin A
Protocol: as §1

[19] = target: each specific kinase (kinase selectivity panel, Table 2) (Homo sapiens, UniProt O00418); experiment: as above; conditions: EF2K
Protocol: as §1

[20] = target: each specific kinase (kinase selectivity panel, Table 2) (Homo sapiens, UniProt P48730); experiment: as above; conditions: CK1
Protocol: as §1

[21] = target: each specific kinase (kinase selectivity panel, Table 2) (Homo sapiens, UniProt P33981); experiment: as above; conditions: TTK
Protocol: as §1

[22] = target: each specific kinase (kinase selectivity panel, Table 2) (Homo sapiens, UniProt P53350); experiment: as above; conditions: PLK1
Protocol: as §1

[23] = target: each specific kinase (kinase selectivity panel, Table 2) (Homo sapiens, UniProt Q16539); experiment: as above; conditions: p38a MAPK
Protocol: as §1

[24] = target: T1, LRRK2 wild type (recombinant human, catalytic domain amino acids 970-2527, GST-tagged) (Homo sapiens, UniProt Q5S007); experiment: LRRK2 wild type protein kinase assay ([γ-33P] ATP, peptide substrate […]), IC50; conditions: LRRK2 (variant not given); read-out: Potency score, LRRK2 IC50
T1 construct: The wild type used was recombinant human, catalytic domain (amino acids 970-2527) GST-tagged, expressed in insect cells; GST; purchased Invitrogen Corporation PV4873; host or cells: insect cells
T1 sequence (Q5S007 970-2527): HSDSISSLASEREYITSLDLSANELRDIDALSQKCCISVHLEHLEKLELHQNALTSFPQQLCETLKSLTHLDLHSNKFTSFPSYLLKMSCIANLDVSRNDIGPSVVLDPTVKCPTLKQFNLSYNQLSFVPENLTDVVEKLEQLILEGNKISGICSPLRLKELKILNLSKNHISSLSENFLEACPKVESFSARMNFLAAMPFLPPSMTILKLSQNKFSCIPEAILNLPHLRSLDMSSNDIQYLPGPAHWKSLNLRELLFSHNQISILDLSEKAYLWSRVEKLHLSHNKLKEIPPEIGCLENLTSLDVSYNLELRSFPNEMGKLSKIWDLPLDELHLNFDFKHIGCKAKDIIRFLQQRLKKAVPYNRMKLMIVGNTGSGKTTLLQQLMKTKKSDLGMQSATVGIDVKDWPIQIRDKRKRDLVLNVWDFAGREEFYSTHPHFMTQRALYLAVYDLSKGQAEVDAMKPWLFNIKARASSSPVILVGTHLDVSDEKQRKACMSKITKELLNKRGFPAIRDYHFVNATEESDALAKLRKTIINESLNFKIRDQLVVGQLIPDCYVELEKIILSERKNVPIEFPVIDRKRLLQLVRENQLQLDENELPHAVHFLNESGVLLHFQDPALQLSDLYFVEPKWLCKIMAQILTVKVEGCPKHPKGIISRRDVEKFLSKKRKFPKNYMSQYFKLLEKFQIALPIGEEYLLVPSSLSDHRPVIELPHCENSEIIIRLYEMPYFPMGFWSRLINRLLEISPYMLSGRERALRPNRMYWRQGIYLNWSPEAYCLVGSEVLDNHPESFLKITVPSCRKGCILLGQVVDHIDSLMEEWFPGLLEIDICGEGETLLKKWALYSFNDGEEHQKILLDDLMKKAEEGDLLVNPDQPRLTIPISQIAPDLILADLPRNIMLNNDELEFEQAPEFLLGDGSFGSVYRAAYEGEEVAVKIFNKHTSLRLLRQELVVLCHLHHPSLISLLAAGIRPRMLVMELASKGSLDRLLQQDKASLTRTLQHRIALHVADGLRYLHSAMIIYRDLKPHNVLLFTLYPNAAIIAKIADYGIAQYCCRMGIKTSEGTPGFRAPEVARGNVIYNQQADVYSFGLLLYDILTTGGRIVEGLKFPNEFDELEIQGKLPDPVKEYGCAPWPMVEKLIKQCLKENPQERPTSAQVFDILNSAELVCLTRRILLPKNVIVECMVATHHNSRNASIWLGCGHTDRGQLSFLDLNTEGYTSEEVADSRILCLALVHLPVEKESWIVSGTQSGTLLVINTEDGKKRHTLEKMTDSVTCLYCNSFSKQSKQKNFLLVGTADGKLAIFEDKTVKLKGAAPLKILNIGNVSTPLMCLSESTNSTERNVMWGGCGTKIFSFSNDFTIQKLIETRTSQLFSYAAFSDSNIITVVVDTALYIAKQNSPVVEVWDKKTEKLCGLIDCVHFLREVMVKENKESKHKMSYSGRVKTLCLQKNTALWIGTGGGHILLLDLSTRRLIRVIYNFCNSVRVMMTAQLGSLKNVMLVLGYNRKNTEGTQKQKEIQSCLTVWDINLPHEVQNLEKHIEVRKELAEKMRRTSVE
In short: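 IC50 derived from duplicate 10-point titrations, with 33P incorporation into a 100 μM peptide counted after P81 filter capture. Roughly 5 nM unactivated kinase reacted with Mg/[γ-33P]ATP for 180 min at room temperature (~21 °C), pH 7.5 Tris buffer containing 10 mM MgCl2, EGTA and DTT; acid-quenched.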

SMILES | percentage inhibition of MINK1 [1] | percentage inhibition of TAK1 [2] | percentage inhibition of SYK [3] | percentage inhibition of TrkA [4] | percentage inhibition of RIPK2 [5] | percentage inhibition of IRAK4 [6] | percentage inhibition of HER4 [7] | percentage inhibition of PAK4 [8] | percentage inhibition of HIPK2 [9] | percentage inhibition of Src [10] | percentage inhibition of ROCK 2 [11] | percentage inhibition of MELK [12] | percentage inhibition of TBK1 [13] | percentage inhibition of CAMK1 [14] | percentage inhibition of JNK2 [15] | percentage inhibition of PDK1 [16] | percentage inhibition of IKKe [17] | percentage inhibition of CDK2-Cyclin A [18] | percentage inhibition of EF2K [19] | percentage inhibition of CK1 [20] | other results
CC[C@H](C)Oc1nccc2[nH]nc(C)c12 [Example 121, 4-((S)-sec-Butoxy)-3-methyl-1H-pyrazolo[4,3-c]pyridine] | 17 percentage | 72 percentage | 0 percentage | 26 percentage | 1 percentage | 12 percentage | 0 percentage | 26 percentage | 0 percentage | 0 percentage | 57 percentage | 61 percentage | 6 percentage | 5 percentage | 0 percentage | 13 percentage | 19 percentage | 61 percentage | 0 percentage | 31 percentage | percentage inhibition of TTK [21]: 30 percentage; percentage inhibition of PLK1 [22]: 19 percentage; percentage inhibition of p38a MAPK [23]: 0 percentage; IC50 [24]: < 100 nM
O=C(CCc1n[nH]c2ccnc(NC3CCCCC3)c12)N1CCC[C@H](c2ccccc2)C1 [Example 172, 3-(4-Cyclohexylamino-1H-pyrazolo[4,3-c]pyridin-3-yl)-1-((R)-3-phenyl-piperidin-1-yl)-propan-1-one] | 18 percentage | 9 percentage | 4 percentage | 5 percentage | 0 percentage | 0 percentage | 10 percentage | 24 percentage | 0 percentage | 6 percentage | 7 percentage | 5 percentage | 14 percentage | 14 percentage | 22 percentage | 0 percentage | 17 percentage | 0 percentage | 0 percentage | 6 percentage | percentage inhibition of TTK [21]: 14 percentage; percentage inhibition of PLK1 [22]: 3 percentage; percentage inhibition of p38a MAPK [23]: 6 percentage; IC50 [24]: < 100 nM
